# Test results from ChEMBL document CHEMBL1201862, “PubChem BioAssay data set” (2004).
#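 96-well plates; 48 h exposure; 5 concentrations. Endpoints by linear interpolation between flanking doses. Not reached: highest tested concentration assigned. Abbreviation: GI50, concentration required for 50% inhibition of growth.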 Active and inactive are the calls of the source. Cut-off read from the data, not from the text of the source: active = GI50 up to about 1.1 µM and inactive = higher.
# Experiments:
# Test in all cases: inhibition of tumour cell growth, NCI panel, 48 h
# M19-MEL = tested on: M19-MEL
# HOP-18 = tested on: HOP-18
# SNB-78 = tested on: SNB-78
# RXF 631 = tested on: RXF 631
# BT-549 = tested on: BT-549
# DU-145 = tested on: DU-145
# MDA-MB-435 = tested on: MDA-MB-435
# MDA-N = tested on: MDA-N
# T47D = tested on: T47D
Structure (SMILES),GI50 (M19-MEL),GI50 (HOP-18),GI50 (SNB-78),GI50 (RXF 631),other results
O=C1NCCCC12CCCNC2=O,> 100 µM (inactive),–,–,–,–
O=c1n(Cc2ccccc2)c2ccccc2n1CC1CS1 (stereo unspecified),> 100 µM (inactive),–,–,–,–
COCOc1ccc(OC)cc1,> 100 µM (inactive),> 100 µM (inactive),> 100 µM (inactive),–,–
CO/C(=N\N=C\c1ccc(Cl)cc1)c1ccncc1,–,–,> 100 µM (inactive),–,–
CC(C)COC(=O)N1N=NC2C3CC(=O)C(O3)C21 (stereo unspecified),> 100 µM (inactive),> 100 µM (inactive),> 100 µM (inactive),> 100 µM (inactive),–
O=[N+]([O-])c1cc(C(F)(F)F)cc2c1SC1=Nc3ccccc3CN12,> 100 µM (inactive),> 100 µM (inactive),> 100 µM (inactive),–,–
Cc1ccc(N2C(=O)N(c3ccc(C)cc3)C3(SC=NN3C)C2=O)cc1 (stereo unspecified),72.6 µM (inactive),> 100 µM (inactive),> 100 µM (inactive),–,–
N#Cc1ccc([N+](=O)[O-])cc1NC(N)=S,> 100 µM (inactive),> 100 µM (inactive),> 100 µM (inactive),> 100 µM (inactive),–
N/C(=N\O)N/N=C/c1ccc2c(c1)OCCO2,> 33 µM (inactive),24.2 µM (inactive),57.7 µM (inactive),–,–
CC1CCN(c2cc(-c3cc4ccccc4o3)oc(=O)c2C#N)CC1,–,> 100 µM (inactive),> 10 µM (inactive),–,–
Cc1ccc2c(c1-c1ccccc1)C(=O)OC2,> 100 µM (inactive),> 100 µM (inactive),37 µM (inactive),> 100 µM (inactive),–
CC(C)(C1=NC(C(C)(C)C)CO1)C1=N[C@@H](C(C)(C)C)CO1 (stereo partly specified),> 100 µM (inactive),> 100 µM (inactive),–,–,–
CC/C=C\C/C=C\C/C=C\CCCCCCCC(=O)OCC,> 100 µM (inactive),> 100 µM (inactive),–,–,–
CC(=O)OCc1nnn2c1C(OC(C)=O)CC2 (stereo unspecified),> 100 µM (inactive),–,> 100 µM (inactive),> 100 µM (inactive),–
CC(=O)Nc1ccc(C(=O)N2N=C(C)/C(=C/c3cccc(O)c3)C2=O)cc1,> 100 µM (inactive),–,–,–,–
CCc1cccc(CC)c1NC1=CC(=O)C(=O)c2ccccc21,4.97 µM (inactive),21.2 µM (inactive),26.3 µM (inactive),13.8 µM (inactive),–
O/N=C/c1ncccc1C1OCCO1,> 100 µM (inactive),> 100 µM (inactive),> 100 µM (inactive),–,–

Structure (SMILES),GI50 (M19-MEL),GI50 (HOP-18),GI50 (SNB-78),GI50 (RXF 631),other results
N/C(=N/O)N/N=C\c1cc(Cl)cc(Cl)c1O,4.19 µM (inactive),10.7 µM (inactive),21.1 µM (inactive),–,–
C#CCOCn1cnc2ncnc(Cl)c21,> 100 µM (inactive),> 100 µM (inactive),> 100 µM (inactive),> 100 µM (inactive),–
CN1C=C(C(N)=O)Cc2ccsc21,> 100 µM (inactive),> 100 µM (inactive),> 100 µM (inactive),–,–
N/N=c1\c2ccccc2c2ccc3c4ccccc4/c(=N\N)c3c12,> 100 µM (inactive),> 100 µM (inactive),> 100 µM (inactive),–,–
CCC1N2CCCCC2[C@@H]2c3[nH]c4ccccc4c3CCN12 (stereo partly specified),> 100 µM (inactive),> 100 µM (inactive),> 100 µM (inactive),> 100 µM (inactive),–
C/C(=N\NC(=S)Nc1ccc(C(=O)O)cc1)c1ccccn1,20.1 µM (inactive),24.7 µM (inactive),> 100 µM (inactive),–,–
COc1cc2c3cc1Oc1c(O)c(OC)cc4c1C(Cc1ccc(O)c(c1)Oc1ccc(cc1)CC3N(C)CC2)N(C)CC4 (stereo unspecified),21.7 µM (inactive),27.9 µM (inactive),24.9 µM (inactive),–,–
c1ccc(C2N=C(c3ccccn3)C(c3ccccn3)=NC2c2ccccc2)cc1 (stereo unspecified),> 100 µM (inactive),84.7 µM (inactive),> 100 µM (inactive),–,–
c1ccc(N2CCN(CCCN3CCc4c([nH]c5ccccc45)C3c3cccnc3)CC2)cc1 (stereo unspecified),> 92 µM (inactive),> 100 µM (inactive),> 100 µM (inactive),> 55.7 µM (inactive),–
CCOc1cccc2[s+]snc12,56 µM (inactive),77.8 µM (inactive),49.3 µM (inactive),> 100 µM (inactive),–
CCOC(=O)Nc1ccc(S(=O)(=O)OC)cc1.CCOC(=O)Nc1ccc(S(=O)(=O)OC)cc1.Cc1cn(C2CC(O)C(CO)O2)c(=O)[nH]c1=O,49.8 µM (inactive),> 100 µM (inactive),> 100 µM (inactive),> 100 µM (inactive),–
CCOC(=O)C(C(=O)OCC)c1ccc([N+](=O)[O-])o1,17.5 µM (inactive),20 µM (inactive),14 µM (inactive),–,–
CCOC(=O)c1cc(Cl)ccc1OC(N)=O,> 100 µM (inactive),> 96.4 µM (inactive),> 100 µM (inactive),–,–
COc1ccc(C2C(Cl)C(=O)N2NC(=O)c2ccc(NC(C)=O)cc2)cc1OC (stereo unspecified),> 100 µM (inactive),> 100 µM (inactive),–,–,–
COc1ccc(NC(=O)C(=O)Cc2ccc([N+](=O)[O-])c([N+](=O)[O-])c2CC(=O)C(=O)Nc2ccc(OC)cc2OC)c(OC)c1,95.9 µM (inactive),> 100 µM (inactive),> 100 µM (inactive),> 100 µM (inactive),–
CC1(c2ccc(F)cc2)C(C#N)C(=O)NC(=O)C1C#N (stereo unspecified),> 100 µM (inactive),–,–,> 100 µM (inactive),–
Clc1ccc(Cc2nc3cc(Cl)c(Cl)cc3n2CC2CCCN3CCCCC23)cc1Cl (stereo unspecified),–,–,–,–,GI50 (BT-549): 8.43 µM (inactive); GI50 (DU-145): 4.79 µM (inactive); GI50 (MDA-MB-435): 3.83 µM (inactive); GI50 (MDA-N): 4.79 µM (inactive); GI50 (T47D): 7.29 µM (inactive)
